Measured values: US7875607B2, “7,8-bicycloakyl-chroman derivatives” (Ampere Life Sciences, Inc., priority 2004, dated 2011)

Key:
[1] = biological target: T1, porcine leukocyte 12/15-lipoxygenase (Sus scrofa, UniProt P16469); assay: 12/15-Lipoxygenase enzyme assay; format: biochemical; conditions: 70 μM arachidonic acid, pH 7.4; read-out: IC50, inhibition of 12/15-Lipoxygenase
T1 sequence (P16469 1-663): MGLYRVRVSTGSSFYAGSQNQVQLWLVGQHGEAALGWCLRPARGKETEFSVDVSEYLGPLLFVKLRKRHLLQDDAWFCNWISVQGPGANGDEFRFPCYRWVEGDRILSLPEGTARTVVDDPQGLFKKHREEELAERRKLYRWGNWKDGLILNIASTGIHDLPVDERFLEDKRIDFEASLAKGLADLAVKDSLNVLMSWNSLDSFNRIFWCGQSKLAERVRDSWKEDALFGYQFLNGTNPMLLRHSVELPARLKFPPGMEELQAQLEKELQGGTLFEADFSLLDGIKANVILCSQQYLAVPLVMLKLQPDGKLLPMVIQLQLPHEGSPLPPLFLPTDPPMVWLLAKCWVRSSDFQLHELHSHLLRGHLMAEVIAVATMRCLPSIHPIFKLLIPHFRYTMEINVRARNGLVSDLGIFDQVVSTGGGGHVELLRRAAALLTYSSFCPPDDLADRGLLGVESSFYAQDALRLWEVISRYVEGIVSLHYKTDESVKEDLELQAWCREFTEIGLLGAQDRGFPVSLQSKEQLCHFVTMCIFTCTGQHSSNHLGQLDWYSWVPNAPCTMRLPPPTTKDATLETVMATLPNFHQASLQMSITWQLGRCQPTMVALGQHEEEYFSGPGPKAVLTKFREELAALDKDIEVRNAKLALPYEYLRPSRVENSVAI
Description: This procedure was used for measuring the enzymatic activity of porcine leukocyte 12/15-lipoxygenase using a calorimetric method based on the ferric oxidation of xylenol orange.
(§1) Porcine Leukocyte 12/15-lipoxygenase (Cayman Cat # 60300) was used in this assay. Test compound and/or vehicle was added to 1.3U 12/15-lipoxygenase in 50 mM Tris-HCl buffer, pH 7.4. The reaction was initiated by addition of 70 μM arachidonic acid in Tris-HCl buffer, pH 7.4, and terminated after a 10 minute incubation at room temperature by addition of FOX reagent (25 mM sulphuric acid, 100 μM xylenol orange, 100 μM iron (II) sulphate, methanol:water 9:1). The yellow color of acidified xylenol orange was converted to a blue color by the lipid hydroperoxide-mediated oxidation of Fe^2+ ions and the interaction of the resulting Fe^3+ ions with the dye. The complex was allowed to form during a 1 hour incubation at room temperature with shaking. Absorbance of the Fe^3+ complex was then measured at […] using a spectrophotometer.
(§2) Negative controls contained enzyme during the incubation step but substrate was not added until after the FOX reagent.
Compounds are screened at 5 concentrations in triplicate starting at 10 μM

[2] = system: LTB4 release from MPRO cell line; assay: LTB4-cell assay; format: cell-based; conditions: Mus musculus; differentiated MPRO cells, 1 μM A23187, 1 hour; read-out: EC50, inhibition of LTB4
Description: This procedure was used for measuring the release of the leukotriene LTB4 from a neutrophil cell line using a competitive ELISA technique.
A mouse promyelocytic cell line (MPRO) was used in this assay. These cells are committed immature neutrophils that can be differentiated into mature neutrophils by treatment with 10 μM all-trans retinoic acid for 72 hours
Following 72 hours of differentiation, cells were stimulated with 1 μM of a calcium ionophore (A23187) in the presence or absence of test compound or vehicle for 1 hour at 37° C. After this time, supernatant was removed from the cells and the LTB4 levels were determined following manufacturer's instructions, using a Leukotriene B4 EIA kit from Cayman (Cat # 520111)
The negative controls were media samples from differentiated but unstimulated cells.
The compounds were screened at 5 concentrations in quadruplicate starting at 10 μM

[3] = biological target: T2, human recombinant 5-lipoxygenase (Homo sapiens, UniProt P09917); assay: 5-Lipoxygenase enzyme assay; format: biochemical; conditions: 70 μM arachidonic acid, pH 7.4
T2 construct: purchased Cayman 60402
T2 sequence (P09917 1-674): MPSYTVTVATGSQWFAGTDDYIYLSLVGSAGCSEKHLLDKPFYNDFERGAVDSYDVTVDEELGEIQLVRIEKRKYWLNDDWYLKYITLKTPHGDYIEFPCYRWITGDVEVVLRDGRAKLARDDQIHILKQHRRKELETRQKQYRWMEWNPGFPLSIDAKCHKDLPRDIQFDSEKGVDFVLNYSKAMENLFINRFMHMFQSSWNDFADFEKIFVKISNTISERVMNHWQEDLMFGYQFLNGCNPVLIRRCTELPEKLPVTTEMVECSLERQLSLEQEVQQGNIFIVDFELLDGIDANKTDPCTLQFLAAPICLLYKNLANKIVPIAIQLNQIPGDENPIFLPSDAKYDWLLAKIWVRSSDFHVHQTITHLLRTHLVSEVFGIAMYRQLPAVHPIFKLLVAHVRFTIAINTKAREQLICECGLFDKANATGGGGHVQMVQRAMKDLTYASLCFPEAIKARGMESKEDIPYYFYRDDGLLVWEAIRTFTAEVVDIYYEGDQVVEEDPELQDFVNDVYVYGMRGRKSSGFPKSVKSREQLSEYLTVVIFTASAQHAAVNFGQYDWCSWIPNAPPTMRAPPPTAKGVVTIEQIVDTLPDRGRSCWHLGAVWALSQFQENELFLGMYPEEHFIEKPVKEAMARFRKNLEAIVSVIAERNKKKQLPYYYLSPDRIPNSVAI
Description: This procedure was used for measuring the enzymatic activity of human recombinant 5-lipoxygenase using a […] method based on the ferric oxidation of xylenol orange.
as §1, with “Human recombinant 5-lipoxygenase” for “Porcine Leukocyte 12/15-lipoxygenase”, “60402)” for “60300)”, “The test” for “Test”, “0.5U 5-lipoxygenase” for “1.3U 12/15-lipoxygenase”
as §2
Compounds were screened at 5 concentrations in triplicate starting at 10 μM

[4] = system: LTB4 production in heparinized whole blood; assay: Inhibition of LTB4 production in blood; format: cell-based, rat or mouse; conditions: 20 μM A23187, read-out: EC50, protection against LTB4
Description: The blood was collected in heparinized tubes or syringes to prevent clotting. Heparin was at 20 USP U/ml. About 3-5 ml of blood was collected per rat and about 0.5-0.75 ml per mouse. This assay required 200 μl/data point, therefore a 96 well plate requires 20 ml.
The Calcium ionophore A23187 was prepared as a 10 mM stock solution in DMSO and the test agent is prepared in DMSO so that <1 μl DMSO will be added to the well
200 μl blood per well were added in a round bottom 96 well clear plastic 96 well plate followed by the test agent. After 10 minutes incubation at 37° C., 5 μl of Calcium ionophore A23187 for a final concentration of 20 μM were added and mixed, and further incubated for 30 min. After 1000×g centrifugation to pellet blood cells, 20 μl plasma was carefully removed.
20 μl plasma were added to 80 μl methanol to precipitate protein and mixed. This was further incubated 10 min. at room temperature and centrifuged at 1000×g to pellet protein.
Following manufacturer's instructions, the commercially available EIA kit was used to subsequently measure the LTB4 production in the samples. The LTB4 levels produced in the vehicle control sample were then compared to those in which the test compound had been added. From this a percent inhibition of LTB4 production by each concentration of test compound was calculated and the IC50 for inhibition of LTB4 production for each test compound was determined.

[5] = system: dopaminergic neuronal cell line; assay: High glutamate-induced oxidative stress assay (HGOS); format: cell-based; conditions: Mus musculus; 30 mM glutamate, 16 hrs; read-out: EC50, protection against HGOS cell injury and cell death
Source text: Protection against redox stress can be further evaluated in cell culture using high glutamate induced oxidative stress (HGOS) in mouse dopaminergic cell lines. The cytotoxic effect of glutamate is not due to excitotoxicity, as this cell line is devoid of inotropic glutamate receptors. Rather, the glutamate-induced toxicity of dopaminergic cells is associated with an inhibition of cystine transport which subsequently leads to depletion of intracellular glutathione (GSH) levels (Murphy T. H., et al. Neuron 2, 1547-1558, 1989), activation of neuronal 12-lipoxygenase (Li, Y. et al., Neuron 19, 453-463, 1997), increased ROS production (Tan S. et al., J. Cell Biol. 141, 1423-1432, 1998) and elevated intracellular Ca^2+ (Li, Y. et al., see supra). Some molecules were measured for their ability to protect cells against glutamate-induced stress and the assay is detailed in Examples.
This procedure was used to induce high glutamate-induced oxidative stress (HGOS) in a dopaminergic neuronal cell line. Using this assay the potency and efficacy of test articles against HGOS neuronal cell injury and cell death was established in a high throughput manner.
The cells were seeded into 96-well plates at a density of 2000 per well and left to grow for 72 hours in a 33° C. incubator with 5% CO2 in air atmosphere. The passage number of the cells for each assay experiment were no later than p11 in order to minimize experimental variation.
All compounds were dissolved in DMEM-No Glu containing 1 mM glucose, 30 mM glutamate and 1×Pen/Strep. DMEM-No Glu with 1 mM glucose and 1×P/S was used as the negative control, DMEM-No Glucose with 1 mM glucose, […] was used as a positive control and 100 μM Glutathione was added to the positive control as a standard. All of the procedures for this involving the making and dilution of compounds were performed using aseptic conditions and with minimal light.
The plates were removed from the incubator and examined under the microscope for morphological appearance and density. Using an aseptic technique and an 8-channel aspirator the media was carefully removed from the cells and replaced with 200 μl of 1×HBSS. This was done as quickly as possible to prevent the cells drying out. The plates were then placed in the humidified 37° C. incubators of the Biomek 2000 Side Loader. Four plates were washed at a time so as to minimize the time that the cells were sitting in 1×HBSS prior to addition of the compound test solution.
The Beckman Biomek workstations were used to load the compounds and controls from the mother plates onto the cell plates that were prewashed with HBSS under sterile conditions. The plates were incubated in the upper HTS incubator at 37° C. in 5% CO2 for exactly 16 hrs. The following day, using the Beckman Biomek workstations, the plates were removed from the incubator. Using Cell Tracker Addition, the compounds were removed from the plates, washed once with […] of pre-warmed 1×HBSS and then 100 μL of 5 μM Cell Tracker Green was added to each well. The plates were incubated at 37° C. for 30 min to allow the dye to enter the cell and be cleaved by the esterases. After washing the cells twice with prewarmed 1×HBSS, the plates were read with the 485 excitation; 538 emission filter pair on a Fluoroskan.

Structure (SMILES) | IC50 [1] [µM] | EC50 [2] [µM] | IC50 [3] [µM] | EC50 [4] [µM] | EC50 [5] [µM]
CC1(c2nccs2)CCc2cc(O)c3c(c2O1)C1CCC3C1 (stereo not drawn) [2-Methyl-2-thiazol-2-yl-3,4,7,8,9,10-hexahydro-7,10-methano-2H-benzo[h]chromen-6-ol] | ≤ 10 | ≤ 5 | – | – | –
Cc1c(O)c2c(c3c1CCC(C)(C)O3)C1CCC2CC1 [2,2,5-Trimethyl-3,4,7,8,9,10-hexahydro-7,10-ethano-2H-benzo[h]chromen-6-ol] | ≤ 10 | ≤ 5 | – | – | –
CC1(C)CCc2cc(O)c3c(c2O1)C1CCC3C1 (stereo not drawn) [2,2-Dimethyl-3,4,7,8,9,10-hexahydro-7,10-methano-2H-benzo[h]chromen-6-ol] | ≤ 10 | ≤ 5 | ≤ 5 | ≤ 10 | –
CC1(CCCSc2ccncc2)CCc2cc(O)c3c(c2O1)C1CCC3C1 (stereo not drawn) [2-Methyl-2-[3-(pyridin-4-ylsulfanyl)-propyl]-3,4,7,8,9,10-hexahydro-7,10-methano-2H-benzo[h]chromen-6-ol] | ≤ 10 | ≤ 5 | ≤ 5 | – | –
CC1(c2cccs2)CCc2cc(O)c3c(c2O1)C1CCC3C1 (stereo not drawn) [2-methyl-2-thiophen-2-yl-3,4,7,8,9,10-hexahydro-7,10-methano-2H-benzo[h]chromen-6-ol] | ≤ 10 | ≤ 5 | – | ≤ 10 | ≤ 1
